Assay results taken from patent publication US7329423B2, “Compositions comprising thylakoids useful in the modulation of inflammation process” (Purecell Technologies Inc., priority 2001, dated 2008).

Columns and labels:
[1] = system: TPA-induced inflammation of mouse ears; assay: Potentiation of budesonide in TPA-induced mouse ear inflammation (Experiment 10); format: in vivo; conditions: BALB/C mice, 24 h
Method: Mice (BALB/C) were kept in individual cages, at 20° C. and 55% relative humidity with 12-h light/12-h dark cycle, in a facility that met the Canadian Council on Animal Care (C.C.A.C.) guidelines. The animals were subjected to an 18-hour starving period prior to treatments. […] of mice were treated in the following manner: • (Treatment-1) No application of cream (n=3); • (Treatment-2) Neutral base cream (n=3); • (Treatment-3) Budesonide (0.1%) in neutral base cream (n=3); • (Treatment-4) Budesonide (0.01%) in neutral base cream (n=3); • (Treatment-5) Budesonide (0.01%)+thylakoid extract (0.05%) in neutral base cream (n=3). All treatments were applied 4 and 8 hours following the inflammatory stress (post-treatment) at a dose of 2 μl/cm^2. Animals were kept in the dark for the duration of the treatments. Prior to treatment, mouse ears were subjected to an inflammatory stress by a topical application of phorbol 12-myristate 13-acetate (TPA) (Sigma Chemicals Co.). 20 μL of TPA (0.2 μg/μL) in an acetone solution was applied (Griswold et al., 1998). The right ear of each mouse was treated with TPA whereas the left ear served as the unstressed control. After 24 hours, the mice were sacrificed and a punch of 6 mm in diameter of both the left and right ears was sampled. Ear punch thickness was measured by an electronic digital caliper 0.01 mm (Traceable).

[2] = system: TNBS-induced colonic damage in rat intestine; assay: Potentiation of mesalamine in TNBS-stressed rat intestine (Experiment 11); format: in vivo; conditions: Wistar rats, mesalamine 57 mg/kg with or without extract 2 mg/kg in the intestinal lumen 24 and 48 h before TNBS
Method: Male Wistar rats (Charles River Laboratories, Montreal) were kept in individual cages, at 20° C. and 55% relative humidity with 12-h light/12-h dark cycle, in a facility that met the Canadian Council on Animal Care (C.C.A.C.) guidelines. The rats were subjected to a 24-hour starving period prior to inflammatory stress induction. Four groups of rats were treated in the following manner: • (Treatment-1) Non-stressed control (n=3); • (Treatment-2) 2,4,6-Trinitrobenzenesulfonic acid (inflammatory agent) in the intestinal lumen (n=3); • (Treatment-3) Mesalamine (5-aminosalicyclic acid; NSAID) (57 mg/kg) administered directly in the intestinal lumen 24 and 48 hours prior to administration of the stress agent (n=3) • (Treatment4) Thylakoid extract (0.05%) (2 mg/kg)+mesalamine (57 mg/kg) administered directly in the intestinal lumen 24 and 48 hours prior to administration of the stress agent (n=3). Twenty-four hours later, the rats were sacrificed and a 10 cm excision of the intestine was sampled.

| SMILES | decrease of ear punch thickness ([1]; budesonide 0.01% in neutral base cream 4 and 8 h after TPA) [%] | decrease of ear punch thickness compared to the untreated control (Treatment-1) ([1]; budesonide 0.1% in neutral base cream 4 and 8 h after TPA) [%] | macroscopic colonic damage score (scale 0-10) [2] |
| --- | --- | --- | --- |
| CCCC1O[C@@H]2C[C@H]3[C@@H]4CCC5=CC(=O)C=C[C@]5(C)[C@H]4[C@@H](O)C[C@]3(C)[C@]2(C(=O)CO)O1 (stereo partly drawn) [Budesonide, budesonide] | 32.6 | 58.2 | – |
| Nc1ccc(O)c(C(=O)O)c1 [mesalamine, 5-aminosalicyclic acid] | – | – | 4.0 |
